Test results taken from publication PMC12400753 (Respiratory Research, 2025).

Experiments:
[1] = test system: LPA-induced mast cell histamine release; experiment: In vivo LPA-induced histamine release; design: species or system mouse
Description: Female CD-1 mice (Envigo) were allowed to acclimate for ~ 1 week. Animals were subject to a 12 h light – 12 h dark cycle. Mice were multi-housed in Innorack IVC mouse racks (Innovive, San Diego, CA) with access to water and standard rodent chow ad libitum. […] Three hours or 24 h after a single dose or after the last of 4 repeated administrations, 150 µL FAF-PBS/BSA (Control) or LPA (300 µg in 150 µL) was administered IV via the lateral tail vein and mice were immediately placed into an isoflurane chamber. Two minutes later, mice were euthanized by decapitation and trunk blood collected into K3EDTA tubes and stored on wet ice until processing to plasma (1450 x g, 10 min, 4 °C). Plasma was aliquoted into two 96-well polypropylene plates and transferred to −80 °C for storage until analysis for histamine by EIA.

[2] = test system: human precision cut lung slices from donors with pulmonary fibrosis; experiment: Fibrotic marker mRNA (qPCR) in cryopreserved PCLS from donors with pulmonary fibrosis; assay type: cell-based; settings: PIPE-791, 6 days, 6 donors
Excerpt: Slices were snap frozen and processed for transcript analysis by quantitative PCR. […] Concurrently, we evaluated two well-established, clinical stage antifibrotic mechanisms in this setting: an αvβ1/6 inhibitor (bexotegrast, PLN-74809) and a PDE4B inhibitor (nerandomilast, BI 1015550).
Precision cut lung slices were obtained from Anabios (San Diego, CA) and collected in accordance with their ethics policy (https://anabios.com/ethics-statement/). Donor demographics are available in Additional File 1. Slices were thawed as per vendor instructions. Briefly, PCLS were thawed at 37 °C then transferred to media consisting of DMEM/F12, Antibiotic-Antimytotic, and Penicillin-Streptomycin. PCLS were gently rinsed then transferred to a larger dish. A small tissue sample was excised with a scalpel for immunohistochemistry and qPCR characterization. […] Final concentration of DMSO was 0.1%. Media and compound were replaced every two days for a total of 6 days. At the end of the experiment, slices were collected and snap frozen. Quantitative PCR: RNA was extracted using RNEasy columns. RNA was reverse transcribed using qScript XLT per manufacturer’s instructions. Genes of interest were assessed by qPCR using Perfecta SYBR Green on a StepOne Plus Thermocycler (ABI). Parameters were as follows: 95 °C 30 s, then 45 cycles of 95 °C for 5 s and 60 °C for 30 s.

LPAR1 = LPAR1 (Homo sapiens, UniProt Q92633); experiment: LPA-induced calcium mobilization in transiently transfected HEK293T cells; assay type: cell-based; design: host or cells: HEK293T; settings: 3 h preincubation; LPA at EC80 5 µM
Description: We had previously assessed selectivity against LPAR2 and 3 [11]. […] Human LPAR1-6 plasmids were each transiently transfected into HEK293T cells and the EC80 (effective concentration producing 80% maximal effect) for LPA activation empirically determined. Selectivity was then tested in a concentration response paradigm using a 3 h preincubation followed by LPA-induced calcium mobilization.
Plasmids containing human LPAR1-6 were obtained from Origene (Rockville, MD) and maxiprepped at Eton Biosciences (San Diego, CA). Transfection mix was prepared by adding Fugene 6 transfection mix to serum free media and 0.1 µg plasmid. After a 20 m incubation, HEK293T cells (ATCC, Manassas VA) were lifted with Accutase and added to the Fugene mix at a final concentration of 0.5 × 10^4 cells/well. Cells were then plated on black clear bottom 96-well plates and incubated overnight in a 37 °C, 5% CO2 incubator. […] During the last hour of incubation, media was removed and replaced with Fluo-4 NW calcium assay dye prepared as per manufacturer’s recommendations in assay buffer. Agonist plates containing LPA were prepared for individual receptor subytpes using their respective EC80. Calcium mobilization was measured as per manufacturer’s directions on a Flexstation 3 (Molecular Devices, San Jose, CA).

Chain of LPAR1 (Q92633 whole entry): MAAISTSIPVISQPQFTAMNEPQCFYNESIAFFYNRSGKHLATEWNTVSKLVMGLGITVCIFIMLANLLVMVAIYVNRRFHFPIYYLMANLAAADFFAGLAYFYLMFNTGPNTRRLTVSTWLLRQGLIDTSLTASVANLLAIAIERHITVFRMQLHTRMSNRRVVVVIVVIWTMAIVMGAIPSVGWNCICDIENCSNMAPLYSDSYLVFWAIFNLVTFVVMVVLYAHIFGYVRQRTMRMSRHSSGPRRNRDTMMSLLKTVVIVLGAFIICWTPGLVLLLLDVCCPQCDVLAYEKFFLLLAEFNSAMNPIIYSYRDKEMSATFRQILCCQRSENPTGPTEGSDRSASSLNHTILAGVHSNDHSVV

For `COc1ccc(NC(=O)N(c2ccccc2C(C)C)C2CCC(C(=O)O)CC2)c(OC(F)F)n1` (stereo not drawn) [PIPE-791], the “blockade of LPA-induced histamine release” value (from here on “blockade”) ([1]; oral, 4 consecutive days (steady state), LPA 3 or 24 h after final dose) was “significant efficacy at 0.3 and 3 mg/kg was observed at both timepoints”, the “blockade” value ([1]; single oral dose 0.3 mg/kg, LPA challenge 3 or 24 h later) was “significance was observed at 24 h but not at 3 h” and the “blockade” value ([1]; single oral dose 3 mg/kg, LPA challenge 3 or 24 h later) was “significant blockade of histamine release”. For the same molecule, the “COL1A1 mRNA expression vs vehicle” value [2] was “significantly less expression”, the “COL3A1 mRNA expression vs vehicle” value [2] was “significantly less expression” and the “LPAR1 mRNA levels vs vehicle” value [2] was “not significantly affected”. For the same molecule, the “SERPINE1 mRNA expression vs vehicle” value [2] was “significantly less expression”, the “TIMP1 mRNA expression vs vehicle” value [2] was “significantly less expression” and the IC50 (LPAR1) was 8 nM.
